system: GALAP (catchweed bedstraw); test: Pre-emergence herbicidal activity, cool season; format: in vivo, Galium aparine; conditions: lowest tested rate with 80% or greater inhibition; rates 300, 100, 30, 10 g/ha; about 14 days
How it was run: (§1)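 Seeds sown in sterilised fertilised topsoil received surface-applied compound in 50:50 acetone/water, typically at 300, 100, 30 and 10 g/ha, then greenhouse-grown at 30/21° C (warm-season species) or 18/13° C (cool-season species). Percent inhibition versus untreated plants was scored at about 14 days, giving GR80; an asterisk marks activity short of 80% at the top rate.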

Compound | Pre-emergence activity GR80, GALAP [g/ha]
CCN(CC)C(=O)n1cnc(S(=O)(=O)C(F)(F)C(F)(F)SC)n1 [Example 14] | 30

system: LAMPU (purple deadnettle); test: Pre-emergence herbicidal activity, cool season; format: in vivo, Lamium purpureum; conditions: lowest tested rate with 80% or greater inhibition; rates 300, 100, 30, 10 g/ha; about 14 days
How it was run: as §1

Compound | Pre-emergence activity GR80, LAMPU [g/ha]
CCN(CC)C(=O)n1cnc(S(=O)(=O)C(F)(F)C(F)(F)SC)n1 [Example 14] | 300

system: SORHA (johnsongrass (seedling)); test: Pre-plant incorporated (PPI) herbicidal activity, warm season; format: in vivo, Sorghum halepense; conditions: Sorghum halepense; PPI application, 10 g/ha; read-out: Percent inhibition SORHA
Experimental: (§2) In another set of tests, the pre-plant incorporated (PPI) activity of compounds of this invention was evaluated on the same species as for the pre-emergence tests described above. In the PPI tests the following procedure, designed to simulate PPI application, was used.
(§3) A pre-prepared topsoil mixture (described above) was placed in a pot and compacted to a depth of 1.0 to 1.25 cm from the top of the pot. Seeds of each of several monocotyledonous and dicotyledonous annual plant species were placed on top of the soil. A sufficient quantity of soil to cover the seeds and level fill the pot was weighed into an open container. A known amount of the test compound was dissolved or suspended in an organic solvent and applied by spraying to this cover soil. The cover soil was thoroughly mixed to distribute the test compound throughout the cover soil, and was then applied as a cover layer over the seeds. Untreated soil was used as a cover layer for control pots. After treatment the plants were placed in a greenhouse where they received 0.64 cm of overhead irrigation. All subsequent watering consisted of a light overhead mist and/or subirrigation as needed for germination and growth. Tables 9 and 10 below relate to warm season plant species which were placed after pre-emergence treatment in a greenhouse with a 30/21° C. day/night temperature regime. Tables 11 and 12 below relates to cool season plant species placed after pre-emergence treatment in a greenhouse or growth chamber with an 18/13° C. day/night temperature regime. Only the compounds of Examples 1, 6, 8, 11, 13 and 15-20 were included in PPI tests.
(§4) Approximately 14 days after planting and treating, the plants were observed and herbicidal efficacy recorded as percent inhibition by comparison with untreated plants.

Compound | inhibition at 10 g/ha [%]
CCN(CC)C(=O)n1cnc(S(=O)(=O)C(F)F)n1 [Example 15, 1-(N,N-diethylcarbamoyl)-3-(difluoromethylsulfonyl)-1,2,4-triazole] | 40

same assay, conditions: Sorghum halepense; PPI application, 30 g/ha; read-out: Percent inhibition SORHA

Compound | inhibition at 30 g/ha [%]
CCN(CC)C(=O)n1cnc(S(=O)(=O)C(F)F)n1 [Example 15, 1-(N,N-diethylcarbamoyl)-3-(difluoromethylsulfonyl)-1,2,4-triazole] | 20

same assay, conditions: Sorghum halepense; PPI application, 100 g/ha; read-out: Percent inhibition SORHA

Compound | inhibition at 100 g/ha [%]
CCN(CC)C(=O)n1cnc(S(=O)(=O)C(F)F)n1 [Example 15, 1-(N,N-diethylcarbamoyl)-3-(difluoromethylsulfonyl)-1,2,4-triazole] | 100

same assay, conditions: Sorghum halepense; PPI application, 300 g/ha; read-out: Percent inhibition SORHA

Compound | inhibition at 300 g/ha [%]
CCN(CC)C(=O)n1cnc(S(=O)(=O)C(F)F)n1 [Example 15, 1-(N,N-diethylcarbamoyl)-3-(difluoromethylsulfonyl)-1,2,4-triazole] | 100

same assay, conditions: Sorghum halepense; PPI application, 900 g/ha; read-out: Percent inhibition SORHA

Compound | inhibition at 900 g/ha [%]
CCN(CC)C(=O)n1cnc(S(=O)(=O)C(F)F)n1 [Example 15, 1-(N,N-diethylcarbamoyl)-3-(difluoromethylsulfonyl)-1,2,4-triazole] | 95

same assay, conditions: pre-plant incorporated; lowest tested rate with 80% or greater inhibition; about 14 days

Compound | PPI activity GR80, SORHA [g/ha]
CCN(CC)C(=O)n1cnc(S(=O)(=O)C(F)F)n1 [Example 15, 1-(N,N-diethylcarbamoyl)-3-(difluoromethylsulfonyl)-1,2,4-triazole] | 30

system: BRAPP (broadleaf signalgrass); test: as above; format: in vivo, Brachiaria platyphylla; conditions: Urochloa platyphylla; PPI application, 10 g/ha; read-out: Percent inhibition BRAPP
Experimental: as §2, §3, §4

Compound | inhibition at 10 g/ha [%]
CCN(CC)C(=O)n1cnc(S(=O)(=O)C(F)F)n1 [Example 15, 1-(N,N-diethylcarbamoyl)-3-(difluoromethylsulfonyl)-1,2,4-triazole] | 0

same assay, conditions: Urochloa platyphylla; PPI application, 30 g/ha; read-out: Percent inhibition BRAPP

Compound | inhibition at 30 g/ha [%]
CCN(CC)C(=O)n1cnc(S(=O)(=O)C(F)F)n1 [Example 15, 1-(N,N-diethylcarbamoyl)-3-(difluoromethylsulfonyl)-1,2,4-triazole] | 0

same assay, conditions: Urochloa platyphylla; PPI application, 100 g/ha; read-out: Percent inhibition BRAPP

Compound | inhibition at 100 g/ha [%]
CCN(CC)C(=O)n1cnc(S(=O)(=O)C(F)F)n1 [Example 15, 1-(N,N-diethylcarbamoyl)-3-(difluoromethylsulfonyl)-1,2,4-triazole] | 95

same assay, conditions: Urochloa platyphylla; PPI application, 300 g/ha; read-out: Percent inhibition BRAPP

Compound | inhibition at 300 g/ha [%]
CCN(CC)C(=O)n1cnc(S(=O)(=O)C(F)F)n1 [Example 15, 1-(N,N-diethylcarbamoyl)-3-(difluoromethylsulfonyl)-1,2,4-triazole] | 99

same assay, conditions: Urochloa platyphylla; PPI application, 900 g/ha; read-out: Percent inhibition BRAPP

Compound | inhibition at 900 g/ha [%]
CCN(CC)C(=O)n1cnc(S(=O)(=O)C(F)F)n1 [Example 15, 1-(N,N-diethylcarbamoyl)-3-(difluoromethylsulfonyl)-1,2,4-triazole] | 100

same assay, conditions: pre-plant incorporated; lowest tested rate with 80% or greater inhibition; about 14 days

Compound | PPI activity GR80, BRAPP [g/ha]
CCN(CC)C(=O)n1cnc(S(=O)(=O)C(F)F)n1 [Example 15, 1-(N,N-diethylcarbamoyl)-3-(difluoromethylsulfonyl)-1,2,4-triazole] | 100

system: LAMPU (purple deadnettle); test: Pre-plant incorporated (PPI) herbicidal activity, cool season; format: in vivo, Lamium purpureum; conditions: pre-plant incorporated; lowest tested rate with 80% or greater inhibition; about 14 days
Experimental: as §2, §3, §4

Compound | PPI activity GR80, LAMPU [g/ha]
CCN(CC)C(=O)n1cnc(S(=O)(=O)C(F)F)n1 [Example 15, 1-(N,N-diethylcarbamoyl)-3-(difluoromethylsulfonyl)-1,2,4-triazole] | 300

system: AGSST (creeping bentgrass); test: as above; format: in vivo, Agrostis stolonifera; conditions: pre-plant incorporated; lowest tested rate with 80% or greater inhibition; about 14 days
Experimental: as §2, §3, §4

Compound | PPI activity GR80, AGSST [g/ha]
CCN(CC)C(=O)n1cnc(S(=O)(=O)C(F)F)n1 [Example 15, 1-(N,N-diethylcarbamoyl)-3-(difluoromethylsulfonyl)-1,2,4-triazole] | 100

system: SETVI (green foxtail); test: Post-emergence herbicidal activity, cool season; format: in vivo, Setaria viridis; conditions: abraded plants sprayed at 300, 100, 30 and 10 g/ha; about 14 days after treatment
Experimental: (§5) In another set of tests, the post-emergence activity of compounds of this invention was evaluated on the cool season species listed above. The following procedure was used.
(§6) A pre-prepared topsoil mixture (described above) was placed in a pot and compacted to a depth of 1.0 to 1.25 cm from the top of the pot. Seeds of each of several monocotyledonous and dicotyledonous annual plant species were placed on top of the soil. The seeds were covered with a mixture of 50% topsoil and 50% Rediearth™ in sufficient quantity to level-fill the pots. The pots were then placed on a greenhouse bench and subirrigated as needed.
(§7) When plants growing from the seeds had emerged and reached a suitable growth stage for post-emergence treatment, typically 9 to 14 days after planting, above-ground parts of the plants were subjected to a pre-treatment involving abrasion to create greater opportunity for foliar uptake of subsequently applied compounds. Abrasion was performed using garnet 200w particles applied with a Sears Craftsman hand-held sandblaster operated at approximately 850 kPa (50 psig) pressure.
(§8) A known amount of each test compound dissolved or suspended in an appropriate organic solvent was diluted with a 50:50 mix of acetone and water and applied to the plants by spraying with a standard spray nozzle in a spray volume of […] at a spray pressure of 511 kPa (30 psig). Only the compounds of Examples 1, 8-15 and 17-22 were included in post-emergence tests. Application rates for these compounds were 300, 100, 30 and 10 g/ha. Control plants were abraded but not sprayed.
(§9) After treatment the plants were placed in a greenhouse with an 18/13° C. day/night temperature regime and were subsequently watered as needed for growth. Approximately 14 days after treatment, the plants were observed and herbicidal efficacy recorded as percent inhibition by comparison with control plants. GR80 values were assigned for each compound as described above for the pre-emergence tests.

Compound | Post-emergence activity GR80, SETVI
CCN(CC)C(=O)n1cnc(S(=O)(=O)C(F)F)n1 [Example 15, 1-(N,N-diethylcarbamoyl)-3-(difluoromethylsulfonyl)-1,2,4-triazole] | [empty]
CCN(CC)C(=O)n1cnc(S(=O)(=O)C(F)(F)C(F)(F)SC)n1 [Example 14] | [empty]

system: AGRRE (quackgrass (seedling)); test: Post-emergence herbicidal activity, cool season; format: in vivo, Elymus repens; conditions: abraded plants sprayed at 300, 100, 30 and 10 g/ha; about 14 days after treatment
Experimental: as §5, §6, §7, §8, §9

Compound | Post-emergence activity GR80, AGRRE
CCN(CC)C(=O)n1cnc(S(=O)(=O)C(F)F)n1 [Example 15, 1-(N,N-diethylcarbamoyl)-3-(difluoromethylsulfonyl)-1,2,4-triazole] | [empty]
CCN(CC)C(=O)n1cnc(S(=O)(=O)C(F)(F)C(F)(F)SC)n1 [Example 14] | [empty]
